In test [1] the target is T1, D(2) dopamine receptor (Homo sapiens, UniProt P14416). The experiment in a line: Potency index, ratio of quinelorane EC50 to compound EC50 for human dopamine D2L receptor expressed in CHO cell membranes. Type of test: cell-based.
The target of test [2] is T1, D(2) dopamine receptor. The experiment in a line: Agonist activity at human dopamine D2L receptor expressed in CHO cell membranes after 1 hr by [35S]-GTPgammaS binding assay relative to 100 uM quinelorane. Type of test: functional. Background: GTPγS resists hydrolysis and so accumulates on activated G proteins.
Test [3] concerns the target T1, D(2) dopamine receptor. The test can be described thus: Agonist activity at human dopamine D2L receptor expressed in CHO cell membranes after 1 hr by [35S]-GTPgammaS binding assay. It is filed as functional.
The next test addresses D(1B) dopamine receptor (Homo sapiens, UniProt P21918). The experiment in a line: Binding affinity to human dopamine D5 receptor.
The target in test [4] is T1, D(2) dopamine receptor. The test can be described thus: Binding affinity to human dopamine D2 receptor.
In another test the target is D(1A) dopamine receptor (Homo sapiens, UniProt P21728). The experiment in a line: Binding affinity to human dopamine D1 receptor.
D(1A) dopamine receptor, sequence (P21728 whole entry): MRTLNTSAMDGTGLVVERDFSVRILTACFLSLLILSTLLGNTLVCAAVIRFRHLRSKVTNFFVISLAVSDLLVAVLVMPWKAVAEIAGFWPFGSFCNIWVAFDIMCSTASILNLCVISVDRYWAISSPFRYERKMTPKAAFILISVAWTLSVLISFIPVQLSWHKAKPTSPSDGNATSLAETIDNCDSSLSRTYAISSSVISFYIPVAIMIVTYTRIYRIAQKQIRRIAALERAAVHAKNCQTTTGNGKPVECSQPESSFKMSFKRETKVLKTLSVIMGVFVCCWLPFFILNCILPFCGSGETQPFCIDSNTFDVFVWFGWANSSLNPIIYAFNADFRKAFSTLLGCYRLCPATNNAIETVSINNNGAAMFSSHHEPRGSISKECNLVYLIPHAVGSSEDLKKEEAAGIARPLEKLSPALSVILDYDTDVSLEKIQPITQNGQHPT
The target in the next test is T2, D(4) dopamine receptor (Homo sapiens, UniProt P21917).
T2 sequence (P21917 whole entry): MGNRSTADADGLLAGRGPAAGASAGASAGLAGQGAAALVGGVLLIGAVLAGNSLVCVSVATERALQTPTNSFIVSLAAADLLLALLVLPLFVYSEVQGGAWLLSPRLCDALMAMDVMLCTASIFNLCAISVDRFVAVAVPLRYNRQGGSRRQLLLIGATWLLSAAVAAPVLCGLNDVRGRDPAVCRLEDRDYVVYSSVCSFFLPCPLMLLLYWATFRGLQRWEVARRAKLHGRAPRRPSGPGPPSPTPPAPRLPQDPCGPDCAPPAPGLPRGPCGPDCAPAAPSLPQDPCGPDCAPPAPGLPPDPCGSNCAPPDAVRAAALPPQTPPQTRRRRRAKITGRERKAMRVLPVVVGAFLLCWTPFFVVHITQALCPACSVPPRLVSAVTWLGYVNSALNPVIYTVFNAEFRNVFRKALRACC
The experiment in a line: Binding affinity to human dopamine D4 receptor.

T1 sequence (P14416 whole entry): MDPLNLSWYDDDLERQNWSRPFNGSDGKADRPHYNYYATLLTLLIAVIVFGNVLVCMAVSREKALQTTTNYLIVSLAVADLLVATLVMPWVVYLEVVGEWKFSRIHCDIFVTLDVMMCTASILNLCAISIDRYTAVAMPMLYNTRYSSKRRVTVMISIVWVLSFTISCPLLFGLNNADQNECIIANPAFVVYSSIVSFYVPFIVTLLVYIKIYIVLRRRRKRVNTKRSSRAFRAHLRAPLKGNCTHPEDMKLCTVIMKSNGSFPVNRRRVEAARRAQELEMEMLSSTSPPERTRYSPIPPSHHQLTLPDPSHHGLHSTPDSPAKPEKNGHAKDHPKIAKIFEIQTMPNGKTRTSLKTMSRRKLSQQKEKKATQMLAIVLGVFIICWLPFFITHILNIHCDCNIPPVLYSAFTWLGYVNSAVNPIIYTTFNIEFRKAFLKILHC
D(1B) dopamine receptor, sequence (P21918 whole entry): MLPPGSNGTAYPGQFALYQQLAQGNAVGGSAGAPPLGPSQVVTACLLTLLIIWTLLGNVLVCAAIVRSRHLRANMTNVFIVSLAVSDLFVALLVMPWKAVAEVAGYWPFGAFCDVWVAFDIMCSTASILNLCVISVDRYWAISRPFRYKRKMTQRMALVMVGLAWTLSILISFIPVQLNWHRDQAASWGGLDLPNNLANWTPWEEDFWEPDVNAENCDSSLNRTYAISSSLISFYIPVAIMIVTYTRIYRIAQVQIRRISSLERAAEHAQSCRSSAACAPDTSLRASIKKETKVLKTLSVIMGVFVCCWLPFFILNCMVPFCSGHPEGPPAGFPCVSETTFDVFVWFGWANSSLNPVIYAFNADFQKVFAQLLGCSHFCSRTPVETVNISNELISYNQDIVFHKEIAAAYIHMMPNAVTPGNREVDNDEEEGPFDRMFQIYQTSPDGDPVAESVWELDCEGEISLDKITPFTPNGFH

With `CCCN(CCCNC(=O)CCCCCCCCCCCCCCCCCCC(=O)NCCCN(CCC)CCc1cccc2c1CC(=O)N2)CCc1cccc2c1CC(=O)N2`, the Ratio EC50 at D(2) dopamine receptor [1] was determined as 3. In addition, on D(2) dopamine receptor [2], the maximal response (Emax) (as a rule, the maximal effect, on the per cent scale that the assay sets) was 58%. Further, the EC50 on D(2) dopamine receptor [3] (read-out: EC50) came to 0.014 µM.

For `CCCN(CCCNC(=O)OC(C)(C)C)CCc1cccc2c1CC(=O)N2`, at D(2) dopamine receptor [2], the Emax turned out to be 69%. On D(2) dopamine receptor [3] (read-out: EC50), the EC50 amounted to 0.219 µM.

As for `CCCN(CCCNC(=O)OC(C)(C)C)CCc1cccc2c1CC(=O)N2CCCNC(=O)OC(C)(C)C`, the maximal effect (Emax) on D(2) dopamine receptor [2] worked out at 45%. Also, the EC50 on D(2) dopamine receptor [3] (read-out: EC50) was 1.41 µM; on D(2) dopamine receptor [3] (read-out: pEC50 (converted)), 1.45 µM.

`CCCNCCc1cccc2c1CC(=O)N2` had an Emax at D(2) dopamine receptor [2] of 92%. Also, the EC50 at D(2) dopamine receptor [3] (read-out: EC50) was 0.085 µM.

`CCCN1CCC[C@@H]2Cc3nc(N)ncc3C[C@H]21` [QUINELORANE]: the EC50 at D(2) dopamine receptor [3] (read-out: EC50) was 0.045 µM.

In turn, `CCCN(CCCNC(=O)CCC(=O)O)CCc1cccc2c1CC(=O)N2` had an Emax at D(2) dopamine receptor [2] of 72%. Further, the EC50 at D(2) dopamine receptor [3] (read-out: EC50) came out at 4.68 µM.

As to `CCCN(CCC)CCc1cccc2c1CC(=O)N2` [ROPINIROLE], the Ki (usually a dissociation constant, usually derived from enzyme kinetics or from competition with a known ligand) worked out at 41.2 µM on D(1B) dopamine receptor, 0.0037 µM at D(2) dopamine receptor [4], 32.5 µM on D(1A) dopamine receptor and 0.0078 µM at D(4) dopamine receptor.

Turning to `CCCN(CCCNC(=O)CCCCCCCCCCC(=O)NCCCN(CCC)CCc1cccc2c1CC(=O)N2)CCc1cccc2c1CC(=O)N2`, on D(2) dopamine receptor [1], the Ratio EC50 worked out at 3. The molecule further gave a maximum response (Emax) on D(2) dopamine receptor [2] of 85%. In addition, at D(2) dopamine receptor [3] (read-out: EC50), the EC50 came out at 0.0039 µM.

`CCCN(CCCNC(=O)CCCCCCCCCCCCCCC(=O)NCCCN(CCC)CCc1cccc2c1CC(=O)N2)CCc1cccc2c1CC(=O)N2`: the Ratio EC50 at D(2) dopamine receptor [1] worked out at 3. The same molecule returned an Emax at D(2) dopamine receptor [2] of 85%. The EC50 on D(2) dopamine receptor [3] (read-out: EC50) was 0.0062 µM.

With `CCCN(CCCNC(=O)CCC(=O)NCCCN(CCC)CCc1cccc2c1CC(=O)N2)CCc1cccc2c1CC(=O)N2`, the maximal effect (Emax) on D(2) dopamine receptor [2] was determined as 94%. The EC50 at D(2) dopamine receptor [3] (read-out: EC50) came to 0.028 µM.

At D(2) dopamine receptor [2], `CCCN(CCCC(=O)OCC)CCc1cccc2c1CC(=O)N2` displayed an Emax of 90%. Also, on D(2) dopamine receptor [3] (read-out: EC50), the EC50 is 0.055 µM.

The molecule `CCCN(CCCNC(=O)CCCCCCC(=O)NCCCN(CCC)CCc1cccc2c1CC(=O)N2)CCc1cccc2c1CC(=O)N2` showed an Emax at D(2) dopamine receptor [2] of 99%. In addition, the EC50 at D(2) dopamine receptor [3] (read-out: EC50) was 0.022 µM.

In turn, `CCCCCCCCCC(=O)NCCCN(CCC)CCc1cccc2c1CC(=O)N2` showed an Emax at D(2) dopamine receptor [2] of 78%. At D(2) dopamine receptor [3] (read-out: EC50), the EC50 came out at 0.042 µM.

The values are drawn from ChEMBL document CHEMBL3585327 (Medchemcomm, 2014).
